# Assay results as given in patent publication US12338484B2, “FRET biosensor for detecting and reporting NAD+/NADH ratio changes” (Sartorius BioAnalytical Instruments, Inc., priority 2022, dated 2025).
# Assay: Performance of initial constructs under dual-excitation FRET signal collection mode
# Assay type: biochemical
# Source text: Constructs #10 and #14 in Table 3 were used to generate protein libraries. […] This is evidenced by the fact that all clones chosen from the libraries to proceed with have in vitro a substantial increase in signal window, compared to the original template protein (constructs #10 or #14). These increases are also roughly similar fold-wise between the numbers obtained in bacterial lysate screening and in the process of in vitro characterization.
substance,measurement,value
Rex(A)-cpmEGFP(173/174)-Rex(B)-mKOk [Construct #12],Performance under dual-excitation FRET signal collection mode,poor performance
